US12319664B2, “Herbicidally active 3-phenylisoxazoline-5-carboxamides of cyclopentenylcarboxylic acid derivatives” (Bayer Aktiengesellschaft, priority 2018, dated 2025)

What was measured:
[1] = system: AVEFA; assay: Post-emergence herbicidal action against AVEFA; assay type: in vivo, Avena fatua; conditions: application rate 80 g/ha, rated visually after about 3 weeks
How it was run: (§1)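 Aqueous suspensions or emulsions of WP/EC formulations containing 0.5% additive are sprayed at 600 l/ha onto plants at the one-leaf stage. After about 3 weeks in the greenhouse, activity is rated by eye versus untreated controls.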

[2] = system: AMARE; assay: Post-emergence herbicidal action against AMARE; assay type: in vivo, Amaranthus retroflexus; conditions: application rate 80 g/ha, rated visually about 3 weeks after treatment
How it was run: as §1

[3] = system: AMARE; assay: Pre-emergence herbicidal action against AMARE; assay type: in vivo, Amaranthus retroflexus; conditions: application rate 80 g/ha
Source text: (§2) 1. Pre-emergence herbicidal action against harmful plants and crop plant compatibility Seeds of monocotyledonous and dicotyledonous weed plants and crop plants are placed in plastic or wood-fibre pots and covered with soil. The compounds of the invention, formulated in the form of wettable powders (WP) or as emulsion concentrates (EC), are then applied onto the surface of the covering soil as aqueous suspension or emulsion with addition of 0.5% additive at a water application rate of 600 l/ha (converted). After the treatment, the pots are placed in a greenhouse and kept under good growth conditions for the trial plants. After about 3 weeks, the effect of the preparations is scored visually in comparison with untreated controls as percentages. For example, 100% activity=the plants have died, 0% activity=like control plants. [table]

[4] = system: ALOMY; assay: Pre-emergence herbicidal action against ALOMY; assay type: in vivo, Alopecurus myosuroides; conditions: application rate 80 g/ha, scored visually after about 3 weeks vs untreated controls (100% = plants have died, 0% = like control plants)
Source text: as §2

[5] = system: PHBPU; assay: Pre-emergence herbicidal action against PHBPU; assay type: in vivo, Pharbitis purpurea; conditions: application rate 80 g/ha
Source text: as §2

[6] = system: AVEFA; assay: Pre-emergence herbicidal action against AVEFA; assay type: in vivo, Avena fatua; conditions: application rate 80 g/ha, scored visually after about 3 weeks vs untreated controls (100% = plants have died, 0% = like control plants)
Source text: as §2

[7] = system: SETVI; assay: Pre-emergence herbicidal action against SETVI; assay type: in vivo, Setaria viridis; conditions: application rate 80 g/ha, scored visually after about 3 weeks vs untreated controls (100% = plants have died, 0% = like control plants)
Source text: as §2

[8] = system: STEME; assay: Pre-emergence herbicidal action against STEME; assay type: in vivo, Stellaria media; conditions: application rate 80 g/ha
Source text: as §2

[9] = system: SETVI; assay: Post-emergence herbicidal action against SETVI; assay type: in vivo, Setaria viridis; conditions: application rate 80 g/ha, rated visually after about 3 weeks
How it was run: as §1

[10] = system: ECHCG; assay: Pre-emergence herbicidal action against ECHCG; assay type: in vivo, Echinochloa crus-galli; conditions: application rate 80 g/ha, scored visually after about 3 weeks vs untreated controls (100% = plants have died, 0% = like control plants)
Source text: as §2

[11] = system: STEME; assay: Post-emergence herbicidal action against STEME; assay type: in vivo, Stellaria media; conditions: application rate 80 g/ha, rated visually about 3 weeks after treatment
How it was run: as §1

[12] = system: LOLRI; assay: Pre-emergence herbicidal action against LOLRI; assay type: in vivo, Lolium rigidum; conditions: application rate 80 g/ha, scored visually after about 3 weeks vs untreated controls (100% = plants have died, 0% = like control plants)
Source text: as §2

[13] = system: ALOMY; assay: Post-emergence herbicidal action against ALOMY; assay type: in vivo, Alopecurus myosuroides; conditions: application rate 80 g/ha, rated visually after about 3 weeks
How it was run: as §1

[14] = system: VIOTR; assay: Pre-emergence herbicidal action against VIOTR; assay type: in vivo, Viola tricolor; conditions: application rate 80 g/ha
Source text: as §2

[15] = system: MATIN; assay: Pre-emergence herbicidal action against MATIN; assay type: in vivo, Matricaria inodora; conditions: application rate 80 g/ha, scored visually after about 3 weeks vs untreated controls (100% = plants have died, 0% = like control plants)
Source text: as §2

[16] = system: POLCO; assay: Pre-emergence herbicidal action against POLCO; assay type: in vivo, Polygonum convolvulus; conditions: application rate 80 g/ha
Source text: as §2

[17] = system: LOLRI; assay: Post-emergence herbicidal action against LOLRI; assay type: in vivo, Lolium rigidum; conditions: application rate 80 g/ha, rated visually after about 3 weeks
How it was run: as §1

[18] = system: ECHCG; assay: Post-emergence herbicidal action against ECHCG; assay type: in vivo, Echinochloa crus-galli; conditions: application rate 80 g/ha, rated visually after about 3 weeks
How it was run: as §1

[19] = system: POLCO; assay: Post-emergence herbicidal action against POLCO; assay type: in vivo, Polygonum convolvulus; conditions: application rate 80 g/ha, rated visually about 3 weeks after treatment
How it was run: as §1

[20] = system: VERPE; assay: Post-emergence herbicidal action against VERPE; assay type: in vivo, Veronica persica; conditions: application rate 80 g/ha
How it was run: as §1

[21] = system: VERPE; assay: Pre-emergence herbicidal action against VERPE; assay type: in vivo, Veronica persica; conditions: application rate 80 g/ha
Source text: as §2

[22] = system: ABUTH; assay: Post-emergence herbicidal action against ABUTH; assay type: in vivo, Abutilon theophrasti; conditions: application rate 80 g/ha, rated visually about 3 weeks after treatment
How it was run: as §1

[23] = system: MATIN; assay: Post-emergence herbicidal action against MATIN; assay type: in vivo, Matricaria inodora; conditions: application rate 80 g/ha, rated visually about 3 weeks after treatment
How it was run: as §1

[24] = system: ABUTH; assay: Pre-emergence herbicidal action against ABUTH; assay type: in vivo, Abutilon theophrasti; conditions: application rate 80 g/ha, scored visually after about 3 weeks vs untreated controls (100% = plants have died, 0% = like control plants)
Source text: as §2

[25] = system: HORMU; assay: Post-emergence herbicidal action against HORMU; assay type: in vivo, Hordeum murinum; conditions: application rate 80 g/ha
How it was run: as §1

[26] = system: VIOTR; assay: Post-emergence herbicidal action against VIOTR; assay type: in vivo, Viola tricolor; conditions: application rate 80 g/ha, rated visually about 3 weeks after treatment
How it was run: as §1

[27] = system: PHBPU; assay: Post-emergence herbicidal action against PHBPU; assay type: in vivo, Pharbitis purpurea; conditions: application rate 80 g/ha, rated visually about 3 weeks after treatment
How it was run: as §1

[28] = system: HORMU; assay: Pre-emergence herbicidal action against HORMU; assay type: in vivo, Hordeum murinum; conditions: application rate 80 g/ha
Source text: as §2

[29] = system: CYPES; assay: Pre-emergence herbicidal action against CYPES; assay type: in vivo; conditions: application rate 80 g/ha, scored visually after about 3 weeks vs untreated controls (100% = plants have died, 0% = like control plants)
Source text: as §2, with “plants.” for “plants. [table]”

| Compound | Herbicidal action against [%] AVEFA [1] [%] | Herbicidal action against [%] AMARE [2] [%] | Herbicidal action against [%] AMARE [3] [%] | Herbicidal action against [%] ALOMY [4] [%] | Herbicidal action against [%] PHBPU [5] [%] | Herbicidal action against [%] AVEFA [6] [%] | Herbicidal action against [%] SETVI [7] [%] | Herbicidal action against [%] STEME [8] [%] | Herbicidal action against [%] SETVI [9] [%] | Herbicidal action against [%] ECHCG [10] [%] | Herbicidal action against [%] STEME [11] [%] | Herbicidal action against [%] LOLRI [12] [%] | Herbicidal action against [%] ALOMY [13] [%] | Herbicidal action against [%] VIOTR [14] [%] | Herbicidal action against [%] MATIN [15] [%] | Herbicidal action against [%] POLCO [16] [%] | Herbicidal action against [%] LOLRI [17] [%] | Herbicidal action against [%] ECHCG [18] [%] | Herbicidal action against [%] POLCO [19] [%] | Herbicidal action against [%] ABUTH [24] [%] | other results |
| --- | --- | --- | --- | --- | --- | --- | --- | --- | --- | --- | --- | --- | --- | --- | --- | --- | --- | --- | --- | --- | --- |
| CONC(=O)[C@@H]1C=C[C@H](NC(=O)C2(C)CC(c3cc(F)cc(F)c3)=NO2)C1 (stereo partly shown) [II-02] | 80 | 80 | 100 | 90 | 90 | 90 | 100 | 100 | 80 | 80 | 90 | 90 | 80 | 90 | 90 | 100 | 80 | 80 |  |  |  |
| C=CC1(C(=O)NC2C=CC(C(=O)OC)C2)CC(c2cc(F)cc(F)c2)=NO1 (stereo not shown) [Example I-012] | 100 | 90 | 100 | 100 | 90 | 90 | 100 | 100 | 90 | 100 | 80 | 100 | 90 | 90 | 90 | 90 | 90 | 90 | 80 | 90 | Herbicidal action against [%] VERPE [20]: 80%; Herbicidal action against [%] VERPE [21]: 100%; Herbicidal action against [%] ABUTH [22]: 80%; Herbicidal action against [%] MATIN [23]: 90%; Herbicidal action against [%] HORMU [25]: 100%; Herbicidal action against [%] VIOTR [26]: 80%; Herbicidal action against [%] PHBPU [27]: 90%; Herbicidal action against [%] HORMU [28]: 90% |
| CN(C)C(=O)C1=CCC(NC(=O)C2(C)CC(c3cccc(F)c3)=NO2)C1 (mixture of isomers) [IV-02] |  |  | 100 | 100 | 80 | 90 | 90 | 90 |  | 90 |  | 100 |  | 90 |  | 100 |  |  | 80 | 80 | Herbicidal action against [%] VERPE [21]: 90%; Herbicidal action against [%] HORMU [28]: 100% |
| CC1(C(=O)NC2C=CC(C(=O)NS(=O)(=O)C(F)(F)F)C2)CC(c2cccc(F)c2)=NO1 (mixture of isomers) [II-16] |  |  | 90 | 100 |  | 80 | 80 | 100 | 80 | 100 |  | 100 |  | 80 | 80 | 90 | 80 |  |  |  | Herbicidal action against [%] CYPES [29]: 100% |
| COC(=O)[C@H]1C=C[C@@H](NC(=O)C2(C)CC(c3cccc(F)c3)=NO2)C1 (stereo partly drawn) [Example I-003, methyl (1R,4S)-4-[[[3-(3-fluorophenyl)-5-methyl-4H-1,2-oxazol-5-yl]carbonyl]amino]cyclopent-2-ene-1-carboxylate] |  |  |  |  |  |  |  | 80 |  |  |  |  |  | 100 |  | 80 |  |  | 80 |  | Herbicidal action against [%] CYPES [29]: 100% |
| CC1(C(=O)N[C@H]2C=C[C@@H](C(=O)O)C2)CC(c2cccc(F)c2)=NO1 (stereo partly shown) [Example I-002] | 80 |  | 90 | 90 | 90 | 80 | 100 | 100 | 80 | 90 | 90 | 100 | 90 | 80 | 80 | 90 | 80 | 80 |  |  | Herbicidal action against [%] MATIN [23]: 80%; Herbicidal action against [%] PHBPU [27]: 80%; Herbicidal action against [%] HORMU [28]: 80% |
| C=CC1(C(=O)NC2C=CC(C(=O)OCC)C2)CC(c2cc(F)cc(F)c2)=NO1 (stereo not shown) [Example I-013] | 90 | 80 | 100 | 100 | 90 | 100 | 100 | 100 | 90 | 100 | 80 | 100 | 80 | 100 | 100 | 90 | 90 | 80 | 90 | 90 | Herbicidal action against [%] VERPE [20]: 80%; Herbicidal action against [%] VERPE [21]: 90%; Herbicidal action against [%] ABUTH [22]: 80%; Herbicidal action against [%] MATIN [23]: 90%; Herbicidal action against [%] HORMU [25]: 90%; Herbicidal action against [%] VIOTR [26]: 80%; Herbicidal action against [%] PHBPU [27]: 80%; Herbicidal action against [%] HORMU [28]: 100% |
| CC(C)C(C#N)NC(=O)C1C=CC(NC(=O)C2(C)CC(c3cc(F)cc(F)c3)=NO2)C1 (mixture of isomers) [II-12] | 80 | 80 | 90 | 90 |  | 80 | 90 | 90 | 80 |  | 90 | 90 | 90 | 80 |  | 100 | 80 |  | 80 | 80 | Herbicidal action against [%] VERPE [20]: 80%; Herbicidal action against [%] ABUTH [22]: 80%; Herbicidal action against [%] PHBPU [27]: 80% |
